Laboratory results taken from patent US8952249B2, “1,4-fullerene addends in photovoltaic cells” (The Regents of the University of California, priority 2010, dated 2015).

What was measured:
[1] = Cyclic voltammetry: reduction potentials and energy of the LUMO; type: physicochemical; conditions: 1,2-dichlorobenzene, Bu4NClO4 (0.1 M), Pt wire counter electrode, 50 mV/s scan rate
Excerpt: The synthesis of fullerenol was previously reported.^6 From fullerenol, we herein report on the syntheses of a set of derivatives by arylation as described in FIG. 1. In a typical reaction, fullerenol is reacted with a specific substrate (a substituted aryl) used as the solvent in the presence of p-toluene sulfonic acid (TsOH) as the catalyst. Following this procedure we synthesized: PEHOB (FIG. 2) (C60 functionalized with a phenyl group on C1 and an ethylhexyloxybenzene group on C4), PCVM (FIG. 3) (Phenyl on C1 and phenylvaleric acid methyl ester on C4), PTHOB (FIG. 4) (phenyl on C1 and trihexyloxyphenyl on C4), PFOH (FIG. 5) (phenyl on C1 and hydroxyl on C4); PFTFP (FIG. 6) (p-trifluorophenyl on C1 and pentafluorophenyl on C4) and ANP (FIG. 7) (phenyl on C1 and aniline on C4). 1H NMR, 13C NMR, 19F NMR and field desorption (FD) mass spectroscopy confirmed the identity of the products. The adducts were further characterized by cyclic voltammetry (CV) and UV-vis spectroscopy. […] From the first reduction potential calculated by CV we determined the energy of the LUMO. An estimated value of the HOMO was inferred from the onset of the UV-vis spectra. In order to modify the property of the derivatives, we appended (i) long alkyl chains to increase solubility and (ii) electron withdrawing or (iii) electron donating groups to stabilize or destabilize the energy of the LUMO respectively. Due to the spherical shape of C60, heteroatoms or functional groups appended on the fullerene can only affect the energy of the molecular orbitals by induction. Therefore, an electron donating group directly bound to C60 such a methoxy will […] the energy of the LUMO because of the higher electronegativity of the oxygen. […] These values are in agreement with previous reports.^8, 9 Table 1 (see below) summarizes the electrochemical data calculated for all the derivatives. […]

[2] = set-up: unit not given here; conditions: PCBM analogues described by Hummelen et al.; cited from earlier work

SMILES: COC(=O)CCCC1(c2ccccc2)C23c4c5c6c7c8c9c(c%10c%11c2c2c%12c4c4c%13c5c5c7c7c8c8c%14c9c%10c9c%10c%11c2c2c%11c%12c4c4c%12c%13c5c5c7c7c8c8c%14c9c9c%10c2c2c%11c4c4c%12c5c7c5c8c9c2c45)C613 (stereo not shown) [PCBM, [6,6]-phenyl-C61-butyric acid methyl ester]
- E1red [1]: −1.056 V vs Fc/Fc+
- E2red [1]: −1.471 V vs Fc/Fc+
- E3red [1]: −1.957 V vs Fc/Fc+
- redox potential [2]: −1.08
